Data set [1] relates to H9. Description: Inhibitory activity against gorwth of uninfected H9 cell growth by 50%. Type of data set: functional, cell-based. To be noted: Homo sapiens.
The subject of data set [2] is H9. Nature of the data set: Anti-HIV activity was evaluated for the concentration that inhibits viral replication by 50%. Type of data set: functional, cell-based. To be noted: Homo sapiens.
Data set [3] can be described thus: Therapeutic index is the ratio of IC50 of compound to that of EC50. The following applies: read-out: Therapeutic index.

The structures appear in SMILES notation.

What is called IC50 is the concentration at which inhibition is half-maximal. High values mean a need for much substance, low ones inhibition by little substance. The term EC50 denotes the concentration at which the effect is half-maximal. A high value points to weaker potency.

In the data set on H9 [1], `COc1cc2c(c3oc(=O)ccc13)[C@@H](OC(=O)C13CCC(C)(C(=O)O1)C3(C)C)[C@@H](OC(=O)C13CCC(C)(C(=O)O1)C3(C)C)C(C)(C)O2` (stereo partly specified) displayed an IC50 above 153000 nM. Further, in the data set with H9 [2], the EC50 was determined as 0.138 nM. In addition, in data set [3], the selectivity ratio is above 403000.
In the same order, the values of `CC1(C)Oc2ccc3ccc(=O)oc3c2[C@@H](OC(=O)C23CCC(C)(C(=O)O2)C3(C)C)[C@H]1OC(=O)C12CCC(C)(C(=O)O1)C2(C)C` (stereo partly specified) are 35000 nM, 0.256 nM and 137000.
In the same order, the values of `COc1cc2ccc(=O)oc2c2c1OC(C)(C)[C@H](OC(=O)C13CCC(C)(C(=O)O1)C3(C)C)[C@@H]2OC(=O)C12CCC(C)(C(=O)O1)C2(C)C` (stereo partly specified) are above 153000 nM, 24500 nM and above 9.68.
In the same order, the values of `COc1cc(=O)oc2c3c(ccc12)OC(C)(C)[C@H](OC(=O)C12CCC(C)(C(=O)O1)C2(C)C)[C@@H]3OC(=O)C12CCC(C)(C(=O)O1)C2(C)C` (stereo partly specified) are above 153000 nM, 2.76 nM and above 51000.
Molecule `COc1cc2ccc3c(c2oc1=O)[C@@H](OC(=O)C12CCC(C)(C(=O)O1)C2(C)C)[C@@H](OC(=O)C12CCC(C)(C(=O)O1)C2(C)C)C(C)(C)O3` (stereo partly specified) came in with an IC50 in the data set with H9 [1] above 153000 nM. In the data set with H9 [2], this molecule returned an EC50 of 6 nM. In addition, the selectivity ratio in data set [3] was above 25500.
In the data set on H9 [2], `Cc1cn([C@H]2C[C@H](N=[N+]=[N-])[C@@H](CO)O2)c(=O)[nH]c1=O` [ZIDOVUDINE] registered an EC50 of 45 nM.

For the origin of these results see ChEMBL document CHEMBL1130573, “Anti-AIDS agents-XXVIII.1 Synthesis and Anti-HIV activity of methoxy substituted 3,4-Di-O-()-camphanoyl-(+)-cis-khellactone (DCK) analogues” (Bioorg Med Chem Lett, 1997).
